Biological target: human IRAK4 (Homo sapiens (Human), UniProt Q9NWZ3)
Assay: IRAK4 kinase inhibition, Transcreener fluorescence polarization ADP assay
Format: biochemical
Settings: recombinant full-length His6-IRAK4; 125 uM ATP; 90 min; Ki computed using ATP Km 642 uM
Experimental: Compounds were assayed for inhibition of human IRAK4 and IRAK1 catalytic activity using recombinant enzyme produced from insect cells. Full-length IRAK4 protein, carrying an N-terminal His6-Tag, was obtained from Life Technologies (Carlsbad, Calif., USA). The IRAK1 construct was produced internally and was comprised of IRAK1 residues Arg194 to Ser712, preceded by an NH2-terminal His6 tag and the coding sequence for glutathione-S-transferase.

Chain of human IRAK4 (Q9NWZ3 whole entry): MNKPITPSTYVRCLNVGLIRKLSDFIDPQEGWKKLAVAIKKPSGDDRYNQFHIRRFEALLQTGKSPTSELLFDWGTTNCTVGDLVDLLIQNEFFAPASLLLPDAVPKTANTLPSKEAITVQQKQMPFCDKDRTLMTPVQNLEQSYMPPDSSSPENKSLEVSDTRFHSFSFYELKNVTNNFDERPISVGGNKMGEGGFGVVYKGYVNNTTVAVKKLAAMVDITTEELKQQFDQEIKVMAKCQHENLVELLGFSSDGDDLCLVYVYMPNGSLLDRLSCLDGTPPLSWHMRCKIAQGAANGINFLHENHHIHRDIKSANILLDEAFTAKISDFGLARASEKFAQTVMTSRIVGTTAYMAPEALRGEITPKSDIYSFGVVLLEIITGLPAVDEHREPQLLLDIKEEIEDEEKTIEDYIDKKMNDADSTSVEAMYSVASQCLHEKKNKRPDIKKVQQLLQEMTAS

| Ki [nM] | SMILES |
| --- | --- |
| 75 | O=C(Nc1cc2c(cc1N1CCOCC1)OC(CO)(CO)C2)c1cnn2cccnc12 [Example 394, N-(2,2-bis(hydroxymethyl)-6-morpholino-2,3-dihydrobenzofuran-5-yl)pyrazolo[1,5-a]pyrimidine-3-carboxamide] |
| 340 | CNC(=O)C1CC1c1cc2c(cc1NC(=O)c1cnn3cccnc13)CC(C)(C)O2 (stereo not drawn) [Example 395, N-(2,2-dimethyl-6-(2-(methylcarbamoyl)cyclopropyl)-2,3-dihydrobenzofuran-5-yl)pyrazolo[1,5-a]pyrimidine-3-carboxamide] |
| 110 | CC1(C)Cc2cc(NC(=O)c3cnn4cccnc34)c([C@@H]3C[C@H]3C(N)=O)cc2O1 [Example 396, N-(6-((1R,2R)-2-Carbamoylcyclopropyl)-2,2-dimethyl-2,3-dihydrobenzofuran-5-yl)pyrazolo[1,5-a]pyrimidine-3-carboxamide] |
| 88 | CC1(C)Cc2cc(NC(=O)c3cnn4cccnc34)c([C@@H]3C[C@H]3CO)cc2O1 [Example 397, N-(6-((1R,2R)-2-(Hydroxymethyl)cyclopropyl)-2,2-dimethyl-2,3-dihydrobenzofuran-5-yl)pyrazolo[1,5-a]pyrimidine-3-carboxamide] |
| 7 | CNc1cnc2c(C(=O)Nc3cc4c(cc3N3CCOCC3)C(=O)N(C(C)C)C4)cnn2c1 [Example 398, N-(2-Isopropyl-6-morpholino-1-oxoisoindolin-5-yl)-6-(methylamino)pyrazolo[1,5-a]-pyrimidine-3-carboxamide] |
| 5 | O=C(Nc1cc2c(cc1N1CCOCC1)C(=O)N([C@H]1CCOC[C@@H]1F)C2)c1cnn2cccnc12 [Example 399, N-[2-[(3R,4S)-3-Fluorotetrahydropyran-4-yl]-6-morpholino-1-oxo-isoindolin-5-yl]pyrazolo[1,5-a]pyrimidine-3-carboxamide] |
| 1 | O=C(Nc1cc2c(cc1N1CCOCC1)C(=O)N([C@@H]1CCOC[C@H]1F)C2)c1cnn2cccnc12 [Example 400, N-[2-[(3S,4R)-3-fluorotetrahydropyran-4-yl]-6-morpholino-1-oxo-isoindolin-5-yl]pyrazolo[1,5-a]pyrimidine-3-carboxamide] |
| 97 | CN1CCc2cc(NC(=O)c3cnn4cccnc34)c(N3CCOCC3)cc2C1=O [Example 401, N-(2-Methyl-7-morpholino-1-oxo-1,2,3,4-tetrahydroisoquinolin-6-yl)pyrazolo[1,5-a]pyrimidine-3-carboxamide] |

The next lines start with the molecule.

| SMILES | Ki [nM] |
| --- | --- |
| O=C(Nc1cc2c(cc1OCC(F)F)OC1(CCNCC1)C2)c1cnn2cccnc12 [Example 377, N-(6-(2,2-Difluoroethoxy)-3H-spiro[benzofuran-2,4′-piperidin]-5-yl)pyrazolo[1,5-a]pyrimidine-3-carboxamide] | 11 |
| CN1CCC2(CC1)Cc1cc(NC(=O)c3cnn4cccnc34)c(OCC(F)F)cc1O2 [Example 378, N-(6-(2,2-difluoroethoxy)-1′-methyl-3H-spiro[benzofuran-2,4′-piperidin]-5-yl)pyrazolo[1,5-a]pyrimidine-3-carboxamide] | 7.3 |
| CNc1cnc2c(C(=O)Nc3cc4c(cc3N3CCN(CC(F)F)CC3)OC(C)(C)C4)cnn2c1 [Example 379, N-[6-[4-(2,2-difluoroethyl)piperazin-1-yl]-2,2-dimethyl-3H-benzofuran-5-yl]-6-(methylamino)pyrazolo[1,5-a]pyrimidine-3-carboxamide] | 5.1 |
| CNc1cnc2c(C(=O)Nc3cc4c(cc3N3CCOCC3)OC3(CCN(C)CC3)C4)cnn2c1 [Example 380, N-(1′-methyl-6-morpholino-3H-spiro[benzofuran-2,4′-piperidin]-5-yl)-6-(methylamino)pyrazolo[1,5-a]pyrimidine-3-carboxamide] | 8.1 |
| CNc1cnc2c(C(=O)Nc3cc4c(cc3N3CCN(CC(F)F)CC3)O[C@](C)(CO)C4)cnn2c1 [Example 381, (S)-N-(6-(4-(2,2-difluoroethyl)piperazin-1-yl)-2-(hydroxymethyl)-2-methyl-2,3-dihydrobenzofuran-5-yl)-6-(methylamino)pyrazolo[1,5-a]pyrimidine-3-carboxamide] | 3 |
| CNc1cnc2c(C(=O)Nc3cc4c(cc3N3CCN(CC(F)F)CC3)O[C@@](C)(CO)C4)cnn2c1 [Example 382, (R)-N-(6-(4-(2,2-difluoroethyl)piperazin-1-yl)-2-(hydroxymethyl)-2-methyl-2,3-dihydrobenzofuran-5-yl)-6-(methylamino)pyrazolo[1,5-a]pyrimidine-3-carboxamide] | 4 |
| CNc1cnc2c(C(=O)Nc3cc4c(cc3N3CCN(CC(F)F)CC3)OC3(CCOCC3)C4)cnn2c1 [Example 383, N-(6-(4-(2,2-difluoroethyl)piperazin-1-yl)-2′,3′,5′,6′-tetrahydro-3H-spiro[benzofuran-2,4′-pyran]-5-yl)-6-(methylamino)pyrazolo[1,5-a]pyrimidine-3-carboxamide] | 7.6 |
| CC1(C)Cc2cc(NC(=O)c3cnn4cccnc34)c(C3CC3)cc2O1 [Example 384, N-(6-Cyclopropyl-2,2-dimethyl-3H-benzofuran-5-yl)pyrazolo[1,5-a]pyrimidine-3-carboxamide] | 37 |
| CN1Cc2cc(NC(=O)c3cnn4cccnc34)c(N3CCOCC3)cc2S1(=O)=O [Example 385, N-(2-methyl-6-morpholino-1,1-dioxo-3H-1,2-benzothiazol-5-yl)pyrazolo[1,5-a]pyrimidine-3-carboxamide] | 19 |
| CC1(CC#N)Cc2cc(NC(=O)c3cnn4cccnc34)c(N3CCOCC3)cc2O1 (stereo not drawn) [Example 386, N-[2-(Cyanomethyl)-2-methyl-6-morpholino-3H-benzofuran-5-yl]pyrazolo[1,5-a]pyrimidine-3-carboxamide] | 16 |
| C[C@]1(CCO)Cc2cc(NC(=O)c3cnn4cccnc34)c(N3CCOCC3)cc2O1 [Example 388, (R)—N-(2-(2-hydroxyethyl)-2-methyl-6-morpholino-2,3-dihydrobenzofuran-5-yl)pyrazolo[1,5-a]pyrimidine-3-carboxamide] | 12 |
| CC1(C)Cc2cc(NC(=O)c3cnn4cccnc34)c(N3CCC(F)(CN)CC3)cc2O1 [Example 389, N-[6-[4-(Aminomethyl)-4-fluoro-1-piperidyl]-2,2-dimethyl-3H-benzofuran-5-yl]pyrazolo[1,5-a]pyrimidine-3-carboxamide] | 1.3 |
| CN1CC[C@]2(Cc3cc(NC(=O)c4cnn5cccnc45)c(N4CCOCC4)cc3O2)C1 [Example 390, (R)—N-(1′-methyl-6-morpholino-3H-spiro[benzofuran-2,3′-pyrrolidin]-5-yl)pyrazolo[1,5-a]pyrimidine-3-carboxamide] | 16 |
| CN1CC[C@@]2(Cc3cc(NC(=O)c4cnn5cccnc45)c(N4CCOCC4)cc3O2)C1 [Example 391, (S)—N-(1′-methyl-6-morpholino-3H-spiro[benzofuran-2,3′-pyrrolidin]-5-yl)pyrazolo[1,5-a]pyrimidine-3-carboxamide] | 31 |
| CC(C)(O)C(F)C1(C)Cc2cc(NC(=O)c3cnn4cccnc34)c(N3CCOCC3)cc2O1 (stereo not drawn) [Example 392, N-[2-(1-fluoro-2-hydroxy-2-methyl-propyl)-2-methyl-6-morpholino-3H-benzofuran-5-yl]pyrazolo[1,5-a]pyrimidine-3-carboxamide] | 18 |
| O=C(Nc1cc2c(cc1N1CCOCC1)OC1(CCNC1)C2)c1cnn2cccnc12 (stereo not drawn) [Example 393, N-(6-Morpholinospiro[3H-benzofuran-2,3′-pyrrolidine]-5-yl)pyrazolo[1,5-a]pyrimidine-3-carboxamide] | 24 |

From patent US10988478B1, “Pyrazolo[1,5a]pyrimidine derivatives as IRAK4 modulators” (Genentech, Inc., priority 2015, dated 2021)
